The source of these data is patent publication US9518052B2, “Pyrazolopyridines and pyrazolopyrimidines” (Pfizer Inc., priority 2014, dated 2016).

Test [1] deals with rhIFNγ stimulated STAT-3 phosphorylation in the A549 human epithelial cell line. Description: A549 Cell Assay: Inhibition of pSTAT3. The class given is cell-based. The conditions noted are these: A549 cells. The method, then: A549 Cell Assay: Inhibition of pSTAT3
An assay measuring the efficacy of JAK inhibitors on the functional response of recombinant human interferon γ (rhIFNγ) stimulated STAT-3 phosphorylation in the A549 human epithelial cell line.
A549 cells (ATCC #CCL-185), were plated at 30,000 cells/well in 96 well flat bottomed tissue culture plates (BD#353072) in 200 μL of growth medium (DMEM, Pfizer media prep, with 10% Fetal Bovine Serum, Sigma #F4135, 2 mM L-Glutamine, Pfizer media prep, 100 U/mL penicillin, Pfizer media prep, and 200 μg/ml streptomycin, Pfizer media prep), and cultured at 37° C., 5% CO2 incubator for 18 hours. Growth medium was removed by vacuum aspiration (V&P Scientific #vp187 bp-60), and 90 μL of pre-warmed assay medium (DMEM with 0.2% BSA, Miltenyi #130-091-376) was added to each well and incubated for 15 minutes at 37° C. 10 μL of vehicle control or test compound (final concentration range of 0.3 nM to 10 μM with 0.1% DMSO) was added to the cells. Plates were incubated at 37° C. for 1 hour. After compound incubation, 10 μL of 220 ng/mL recombinant human IFNγ (R&D Systems #285-IF, final rhIFNγ concentration of 20 ng/mL) was added to the cells and plates were incubated for 30 minutes at 37° C. Wells containing A549 cells, medium with 0.1% DMSO and no rhIFNγ were used as background controls. After rhIFNγ stimulation, media was aspirated from each well and 35 μL/well of iced-cold MSD lysis buffer containing protease and phosphatase inhibitors from Phospho-STAT3 Tyr705 assay kit (Meso-Scale Discovery #K150DID) was added to each well. Plates were incubated at 4° C. with shaking for 30 minutes. Cell lysates were assayed following the MSD Phospho-STAT3 Tyr705 assay kit protocol to detect pSTAT3.
Data were collected and transformed into percent inhibition and calculated using the following formula: […]

Test [2] deals with JAK1 (Homo sapiens (Human), UniProt P23458). Description: JAK Caliper Enzyme Assay at 1 mM ATP (JAK1). The class given is biochemical. The conditions noted are these: Caliper assay at 1 mM ATP.
JAK1, sequence (P23458 whole entry, species assumed): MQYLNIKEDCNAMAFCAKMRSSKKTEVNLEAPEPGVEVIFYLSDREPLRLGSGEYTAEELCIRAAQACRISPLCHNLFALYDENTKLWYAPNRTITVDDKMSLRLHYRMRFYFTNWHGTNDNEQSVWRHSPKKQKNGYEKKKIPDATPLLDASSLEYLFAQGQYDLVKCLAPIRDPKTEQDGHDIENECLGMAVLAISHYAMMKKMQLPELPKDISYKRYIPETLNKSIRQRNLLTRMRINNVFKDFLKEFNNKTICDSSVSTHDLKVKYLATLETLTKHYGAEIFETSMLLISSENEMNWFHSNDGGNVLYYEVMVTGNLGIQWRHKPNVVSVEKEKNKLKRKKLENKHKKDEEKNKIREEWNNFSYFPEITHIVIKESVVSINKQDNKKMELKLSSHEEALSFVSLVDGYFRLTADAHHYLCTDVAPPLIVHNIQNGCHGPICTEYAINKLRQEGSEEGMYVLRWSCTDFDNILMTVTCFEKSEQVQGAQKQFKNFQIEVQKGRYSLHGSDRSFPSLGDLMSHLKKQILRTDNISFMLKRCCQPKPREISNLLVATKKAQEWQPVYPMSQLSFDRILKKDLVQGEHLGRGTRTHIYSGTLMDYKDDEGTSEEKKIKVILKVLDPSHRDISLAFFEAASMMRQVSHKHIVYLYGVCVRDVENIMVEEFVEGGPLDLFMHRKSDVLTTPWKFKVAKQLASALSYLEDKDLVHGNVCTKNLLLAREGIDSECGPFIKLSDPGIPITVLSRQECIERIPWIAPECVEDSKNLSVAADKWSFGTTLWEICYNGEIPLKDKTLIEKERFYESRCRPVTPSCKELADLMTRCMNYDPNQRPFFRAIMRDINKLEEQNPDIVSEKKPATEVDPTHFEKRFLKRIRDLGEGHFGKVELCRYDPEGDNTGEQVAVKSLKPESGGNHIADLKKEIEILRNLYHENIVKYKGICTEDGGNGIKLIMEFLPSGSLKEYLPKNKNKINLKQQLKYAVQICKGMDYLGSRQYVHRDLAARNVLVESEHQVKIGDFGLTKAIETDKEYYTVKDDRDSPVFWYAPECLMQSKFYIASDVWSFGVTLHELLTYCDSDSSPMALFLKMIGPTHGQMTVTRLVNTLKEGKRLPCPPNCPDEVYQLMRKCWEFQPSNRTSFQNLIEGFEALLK
In test [3] the target is JAK3 (Homo sapiens (Human), UniProt P52333). Description: JAK Caliper Enzyme Assay at 1 mM ATP (JAK3). The class given is biochemical. The conditions noted are these: Caliper assay at 1 mM ATP.
JAK3, sequence (P52333 whole entry, species assumed): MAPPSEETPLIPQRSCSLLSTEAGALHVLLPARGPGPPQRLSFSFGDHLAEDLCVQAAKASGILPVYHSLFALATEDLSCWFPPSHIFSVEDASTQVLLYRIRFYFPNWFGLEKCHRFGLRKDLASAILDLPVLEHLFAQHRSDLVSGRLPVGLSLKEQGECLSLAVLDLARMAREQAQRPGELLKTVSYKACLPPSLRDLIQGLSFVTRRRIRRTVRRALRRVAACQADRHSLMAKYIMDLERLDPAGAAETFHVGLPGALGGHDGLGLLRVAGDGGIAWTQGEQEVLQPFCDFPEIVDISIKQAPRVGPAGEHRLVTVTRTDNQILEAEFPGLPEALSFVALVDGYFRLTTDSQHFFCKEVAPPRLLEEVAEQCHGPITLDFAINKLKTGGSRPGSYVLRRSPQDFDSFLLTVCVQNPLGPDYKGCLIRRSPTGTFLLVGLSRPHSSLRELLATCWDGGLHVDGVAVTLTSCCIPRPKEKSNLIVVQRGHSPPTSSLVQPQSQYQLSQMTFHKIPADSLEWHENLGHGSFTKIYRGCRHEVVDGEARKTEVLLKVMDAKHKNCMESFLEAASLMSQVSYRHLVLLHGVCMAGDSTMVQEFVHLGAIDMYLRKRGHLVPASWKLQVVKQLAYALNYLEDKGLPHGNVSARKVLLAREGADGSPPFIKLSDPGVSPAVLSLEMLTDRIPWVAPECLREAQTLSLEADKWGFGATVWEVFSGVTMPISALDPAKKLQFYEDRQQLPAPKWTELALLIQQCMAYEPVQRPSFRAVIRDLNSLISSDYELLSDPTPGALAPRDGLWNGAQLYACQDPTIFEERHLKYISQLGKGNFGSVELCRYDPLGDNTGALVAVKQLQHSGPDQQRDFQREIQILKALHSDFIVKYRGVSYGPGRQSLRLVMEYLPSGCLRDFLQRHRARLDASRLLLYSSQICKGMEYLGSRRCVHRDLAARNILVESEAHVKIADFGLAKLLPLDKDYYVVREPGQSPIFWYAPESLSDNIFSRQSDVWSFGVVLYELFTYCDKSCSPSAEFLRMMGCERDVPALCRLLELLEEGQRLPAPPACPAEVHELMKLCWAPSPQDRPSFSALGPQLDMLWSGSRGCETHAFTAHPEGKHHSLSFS
The target of test [4] is JAK2 (Homo sapiens (Human), UniProt O60674). Nature of the test: JAK Caliper Enzyme Assay at 1 mM ATP (JAK2). In kind it is biochemical. As to conditions: Caliper assay at 1 mM ATP.
JAK2, sequence (O60674 whole entry, species assumed): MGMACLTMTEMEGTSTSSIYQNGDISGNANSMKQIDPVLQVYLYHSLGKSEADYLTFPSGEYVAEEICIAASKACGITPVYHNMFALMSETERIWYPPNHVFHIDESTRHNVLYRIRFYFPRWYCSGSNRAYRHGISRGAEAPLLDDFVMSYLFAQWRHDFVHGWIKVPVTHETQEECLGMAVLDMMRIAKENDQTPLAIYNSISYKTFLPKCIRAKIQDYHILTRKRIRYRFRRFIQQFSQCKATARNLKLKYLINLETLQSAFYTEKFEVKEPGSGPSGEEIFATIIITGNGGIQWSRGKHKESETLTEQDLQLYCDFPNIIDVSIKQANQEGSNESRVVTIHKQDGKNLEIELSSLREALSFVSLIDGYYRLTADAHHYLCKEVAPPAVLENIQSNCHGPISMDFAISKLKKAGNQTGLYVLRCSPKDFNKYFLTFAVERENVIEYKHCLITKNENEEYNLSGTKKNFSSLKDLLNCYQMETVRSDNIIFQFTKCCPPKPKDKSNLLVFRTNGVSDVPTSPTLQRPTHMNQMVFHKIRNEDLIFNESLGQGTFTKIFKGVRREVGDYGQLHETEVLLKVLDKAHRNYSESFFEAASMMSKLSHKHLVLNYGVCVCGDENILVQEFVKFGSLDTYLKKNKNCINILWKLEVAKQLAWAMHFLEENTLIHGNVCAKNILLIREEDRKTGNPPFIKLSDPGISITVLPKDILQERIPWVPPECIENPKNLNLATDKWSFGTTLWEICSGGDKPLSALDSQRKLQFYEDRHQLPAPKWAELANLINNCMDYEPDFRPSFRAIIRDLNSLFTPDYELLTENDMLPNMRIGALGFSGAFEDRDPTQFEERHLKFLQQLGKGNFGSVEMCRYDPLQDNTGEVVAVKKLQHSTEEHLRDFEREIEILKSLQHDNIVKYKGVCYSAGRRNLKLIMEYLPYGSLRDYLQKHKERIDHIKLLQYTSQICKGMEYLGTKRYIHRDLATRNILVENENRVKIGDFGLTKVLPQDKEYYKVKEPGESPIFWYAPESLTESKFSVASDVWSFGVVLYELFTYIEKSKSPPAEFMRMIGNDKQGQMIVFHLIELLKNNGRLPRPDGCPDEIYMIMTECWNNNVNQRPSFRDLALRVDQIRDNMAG
Test [5] has as its target TYK2 (Homo sapiens (Human), UniProt P29597). Description: JAK Caliper Enzyme Assay at 1 mM ATP (TYK2). As to conditions: Caliper assay at 1 mM ATP. In kind it is biochemical.

TYK2, sequence (P29597 whole entry, species assumed): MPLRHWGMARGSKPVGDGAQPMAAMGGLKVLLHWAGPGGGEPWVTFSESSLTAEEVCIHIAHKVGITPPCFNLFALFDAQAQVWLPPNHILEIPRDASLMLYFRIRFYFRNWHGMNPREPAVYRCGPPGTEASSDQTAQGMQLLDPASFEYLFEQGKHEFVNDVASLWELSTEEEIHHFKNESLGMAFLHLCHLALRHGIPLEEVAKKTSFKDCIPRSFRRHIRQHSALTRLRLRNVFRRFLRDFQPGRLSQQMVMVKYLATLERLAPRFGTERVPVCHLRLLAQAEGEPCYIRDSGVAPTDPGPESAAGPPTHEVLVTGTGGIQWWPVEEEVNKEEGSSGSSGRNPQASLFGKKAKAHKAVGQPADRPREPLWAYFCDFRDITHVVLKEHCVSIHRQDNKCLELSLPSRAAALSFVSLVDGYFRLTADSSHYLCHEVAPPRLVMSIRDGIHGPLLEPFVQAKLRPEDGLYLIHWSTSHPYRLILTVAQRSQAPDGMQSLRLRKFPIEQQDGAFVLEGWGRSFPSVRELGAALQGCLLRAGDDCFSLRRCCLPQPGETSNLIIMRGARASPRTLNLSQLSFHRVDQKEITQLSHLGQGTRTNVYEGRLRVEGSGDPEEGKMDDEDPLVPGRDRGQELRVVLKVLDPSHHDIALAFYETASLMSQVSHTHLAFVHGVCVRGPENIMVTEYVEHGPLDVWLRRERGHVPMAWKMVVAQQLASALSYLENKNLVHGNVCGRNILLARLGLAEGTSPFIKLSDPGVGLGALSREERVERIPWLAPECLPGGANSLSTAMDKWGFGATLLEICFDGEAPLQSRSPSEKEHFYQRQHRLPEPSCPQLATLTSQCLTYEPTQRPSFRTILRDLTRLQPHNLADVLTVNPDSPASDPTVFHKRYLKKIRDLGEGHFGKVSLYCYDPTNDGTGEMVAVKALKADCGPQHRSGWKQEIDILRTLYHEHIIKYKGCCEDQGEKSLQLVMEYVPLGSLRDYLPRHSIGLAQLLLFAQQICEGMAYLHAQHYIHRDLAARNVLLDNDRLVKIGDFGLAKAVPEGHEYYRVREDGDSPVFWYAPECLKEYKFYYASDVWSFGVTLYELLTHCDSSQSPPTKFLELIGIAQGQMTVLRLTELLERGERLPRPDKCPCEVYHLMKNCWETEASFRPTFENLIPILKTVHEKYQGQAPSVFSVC

One may read the IC50 as the midpoint of a concentration-inhibition curve. A lower IC50 goes with greater potency in that assay. For the molecule `CNC(=O)c1n[nH]c2cc(-c3cc(F)c(O)cc3CC(F)(F)F)nc(NCc3ccccc3N(C)S(=O)(=O)c3cn(C)cn3)c12` [Example 59], the IC50 was 290 nM in test [1]; 5.3 nM in test [2]; 112 nM in test [3]; 23.5 nM in test [4]; 22.6 nM in test [5]. As to “6-[5-fluoro-4-hydroxy-2-(2,2,2-trifluoroethyl)phenyl]-4-({5-methoxy-2-[methyl(methylsulfonyl)amino]benzyl}amino)-N-methyl-1H-pyrazolo[4,3-c]pyridine-3-carboxamide [Example 50]”, the concentration for half-maximal inhibition (IC50) in test [1] amounted to 321 nM; in test [3], 47.4 nM; in test [4], 10.7 nM; in test [5] it was 10.5 nM.

`CCc1cc(O)c(F)cc1-c1cc2[nH]nc(C(=O)NC)c2c(NCc2ccccc2N(C)S(=O)(=O)c2ccccc2)n1` [Example 22, 6-(2-ethyl-5-fluoro-4-hydroxyphenyl)-N-methyl-4-({2-[methyl(phen-ylsulfonyl)amino]ben-zyl}amino)-1H-pyrazolo[4,3-c]pyridine-3-carboxamide] displayed a half-inhibitory concentration (IC50) in test [1] of 52.8 nM. Consider `CNC(=O)c1n[nH]c2cc(-c3cc(F)c(O)cc3CC(F)(F)F)nc(NCc3cc(O)ccc3N(C)S(=O)(=O)c3ccccc3)c12` [Example 35, 6-[5-fluoro-4-hydroxy-2-(2,2,2-trifluoroethyl)phenyl]-4-({5-hydroxy-2-[methyl(phenylsulfon-yl)amino]benzyl}amino)-N-methyl-1H-pyrazolo[4,3-c]pyridine-3-carboxamide], for which the concentration for half-maximal inhibition (IC50) in test [1] turned out to be 437 nM. Against the preceding molecule, the IC50 is about 8.3-fold higher. On to `CNC(=O)c1n[nH]c2nc(-c3cc(F)c(O)cc3CC(F)(F)F)nc(NCc3cc(F)ccc3N(C)S(C)(=O)=O)c12` [Example 104, 4-((5-fluoro-2-(N-methylmethylsulfon-amido)benzyl)amino)-6-(5-fluoro-4-hydroxy-2-(2,2,2-trifluoroethyl)phenyl)-N-methyl-1H-pyrazolo[3,4-d]pyrimidine-3-carboxamide], for which the IC50 in test [1] was found to be 292 nM; in test [2], 10.4 nM; in test [3] it was 113 nM; in test [4], 66.1 nM; in test [5] it was 1380 nM. Turning to `CCc1cc(O)c(F)cc1-c1cc2[nH]nc(-c3nc(C)c(C)[nH]3)c2c(NCc2ccccc2N(C)S(C)(=O)=O)n1` [Example 158, N-[2-({[3-(4,5-Dimethyl-1H-imidazol-2-yl)-6-(2-ethyl-5-fluoro-4-hydroxyphenyl)-1H-pyrazolo[4,3-c]pyridin-4-yl]amino}methyl)phenyl]-N-methylmethanesulfonamide], the IC50 in test [1] (Homo sapiens) was 31.3 nM; in test [2] it was 5.3 nM; in test [3] it was 114 nM; in test [4], 27.8 nM; in test [5], 33.3 nM. `CNC(=O)c1n[nH]c2cc(-c3cc(F)c(O)cc3CC(F)(F)F)nc(NCc3ccccc3N(CCO)S(C)(=O)=O)c12` [Example 24, 6-[5-fluoro-4-hydroxy-2-(2,2,2-trifluoroethyl)phenyl]-4-({2-[(2-hydroxyethyl)-(methylsulfonyl)ami-no]benzyl}amino)-N-methyl-1H-pyrazolo[4,3-c]pyridine-3-carboxamide] gave an IC50 in test [1] of 226 nM. This counts as sub-micromolar. In test [1] (Homo sapiens), `CNC(=O)c1n[nH]c2nc(-c3cc(F)c(O)cc3CC(F)(F)F)nc(NCc3nccnc3N(C)S(C)(=O)=O)c12` [Example 100, 6-(5-Fluoro-4-hydroxy-2-(2,2,2-trifluoroethyl)phenyl)-N-methyl-4-(((3-(N-methylmethyl-sulfonamido)pyrazin-2-yl)methyl)amino)-1H-pyrazolo[3,4-d]pyrimidine-3-carboxamide] displayed a concentration for half-maximal inhibition (IC50) of 6880 nM. This lies in the single-digit micromolar range.

Molecule `CCN(c1ccc(O)cc1CNc1nc(-c2cc(F)c(O)cc2CC(F)(F)F)nc2[nH]nc(C(=O)NC)c12)S(=O)(=O)c1ccccc1` [Example 105, 4-((2-(N-Ethylphenylsulfonamido)-5-hydroxybenzyl)amino)-6-(5-fluoro-4-hydroxy-2-(2,2,2-trifluoroethyl)phenyl)-N-methyl-1H-pyrazolo[3,4-d]pyrimidine-3-carboxamide] came in with a 50% inhibitory concentration (IC50) in test [1] (Homo sapiens) of 7020 nM. As for `CNC(=O)c1n[nH]c2cc(-c3cc(F)c(O)cc3CC(F)(F)F)nc(NCc3cc(O)ccc3N(C)S(=O)(=O)c3cccnc3)c12` [Example 54, 6-[5-fluoro-4-hydroxy-2-(2,2,2-trifluoroethyl)phenyl]-4-({5-hydroxy-2-[methyl(pyridin-3-ylsulfonyl)amino]ben-zyl}amino)-N-methyl-1H-pyrazolo[4,3-c]pyridine-3-carboxamide], in test [1], the half-inhibitory concentration (IC50) was determined as 135 nM. This counts as sub-micromolar.

In test [1], `CN(c1ccccc1CNc1nc(-c2cc(F)c(O)cc2CC(F)(F)F)cc2[nH]nc(C(N)=O)c12)S(=O)(=O)c1ccccc1` [Example 26, 6-[5-fluoro-4-hydroxy-2-(2,2,2-trifluoroethyl)phenyl]-4-({2-[methyl(phen-ylsulfonyl)amino]ben-zyl}amino)-1H-pyrazolo[4,3-c]pyridine-3-carboxamide] returned an IC50 of 124 nM.

For the molecule `CCc1cc(O)c(F)cc1-c1cc2[nH]nc(C(=O)NC)c2c(NCc2ccccc2N(CC)S(C)(=O)=O)n1` [Example 9, 6-(2-ethyl-5-fluoro-4-hydroxyphenyl)-4-({2-[ethyl(methylsulfonyl)ami-no]benzyl}amino)-N-methyl-1H-pyrazolo[4,3-c]pyridine-3-carboxamide], in test [1], the half-maximal inhibitory concentration (IC50) came out at 14.9 nM. With `CN(c1ccccc1CNc1nc(-c2cc(F)c(O)cc2CC(F)(F)F)nc2[nH]nc(-c3nnc(C4CCN(C(=O)CN5CCCC5)CC4)[nH]3)c12)S(C)(=O)=O` [Example 168, N-(2-{[(6-[5-Fluoro-4-hydroxy-2-(2,2,2-trifluoroethyl)phenyl]-3-{5-[1-(pyrrolidin-1-ylacetyl)piperidin-4-yl]-4H-1,2,4-triazol-3-yl}-1H-pyrazolo[3,4-d]pyrimidin-4-yl)amino]methyl}phenyl)-N-methylmethanesulfonamide], in test [1] (Homo sapiens), 13300 nM corresponded to half-maximal inhibition (IC50). The molecule `CCc1cc(O)c(F)cc1-c1cc2[nH]nc(C(=O)NC)c2c(NCCc2ccc(NS(=O)(=O)c3ccccc3)cc2)n1` [Example 23, 6-(2-ethyl-5-fluoro-4-hydroxyphenyl)-N-methyl-4-[(2-{4-[(phenylsulfonyl)-amino]phenyl}ethyl)ami-no]-1H-pyrazolo[4,3-c]pyridine-3-carboxamide] had an IC50 in test [1] of 51.4 nM. In other words, the double-digit nanomolar range.

As for `CCc1cc(O)cc(C)c1-c1cc2[nH]ncc2c(NCc2ccccc2N(C)S(C)(=O)=O)n1` [Example 156, N-(2-(((6-(2-Ethyl-4-hydroxy-6-methylphenyl)-1H-pyrazolo[4,3-c]pyridin-4-yl)amino)methyl)phenyl)-N-methylmethanesulfonamide], the IC50 worked out at 72.4 nM in test [1] (Homo sapiens), 25.5 nM in test [2], 177 nM in test [3] and 10000 nM in test [5]. Take `CCS(=O)(=O)N(C)c1ccccc1CNc1nc(-c2cc(F)c(O)cc2CC(F)(F)F)cc2[nH]nc(C(=O)NC)c12` [Example 13]: inhibition in test [1] was half-maximal at 96.7 nM (IC50). For `CN(c1ccc(O)cc1CNc1nc(-c2cc(F)c(O)cc2CC(F)(F)F)cc2[nH]nc(C(=O)Nc3ccc(NCCO)nc3)c12)S(C)(=O)=O` [Example 75, 6-[5-Fluoro-4-hydroxy-2-(2,2,2-trifluoroethyl)phenyl]-N-{6-[(2-hydroxyethyl)amino]pyridin-3-yl}-4-({5-hydroxy-2-[methyl(methylsulfonyl)amino]benzyl}amino)-1H-pyrazolo[4,3-c]pyridine-3-carboxamide], the 50% inhibitory concentration (IC50) in test [1] (Homo sapiens) was 1350 nM. Molecule `CNC(=O)c1n[nH]c2cc(-c3cc(F)c(O)cc3CC(F)(F)F)nc(NCc3cc(F)ccc3N(C)S(C)(=O)=O)c12` [Example 14, 6-[5-fluoro-4-hydroxy-2-(2,2,2-trifluoroethyl)phenyl]-4-({5-fluoro-2-[methyl(methylsulfon-yl)amino]benzyl}ami-no)-N-methyl-1H-pyrazolo[4,3-c]pyridine-3-carboxamide] registered a concentration for half-maximal inhibition (IC50) in test [1] of 20.7 nM.

As for `CNC(=O)c1n[nH]c2cc(-c3cc(F)c(O)cc3CC(F)(F)F)nc(NCc3c(F)cccc3N(C)S(C)(=O)=O)c12` [Example 18, 6-[5-fluoro-4-hydroxy-2-(2,2,2-trifluoroethyl)phenyl]-4-({2-fluoro-6-[methyl(meth-ylsulfonyl)amino]benz-yl}amino)-N-methyl-1H-pyrazolo[4,3-c]pyridine-3-carboxamide], the midpoint of inhibition in test [1], the IC50, lay at 97 nM. `CN(c1cc(O)ccc1CNc1nc(-c2cc(F)c(O)cc2CC(F)(F)F)cc2[nH]nc(C(N)=O)c12)S(C)(=O)=O` [Example 41, 6-[5-Fluoro-4-hydroxy-2-(2,2,2-trifluoroethyl)phenyl]-4-({4-hydroxy-2-[methyl(methylsulfonyl)amino]benzyl}amino)-1H-pyrazolo[4,3-c]pyridine-3-carboxamide] had an IC50 in test [1] (Homo sapiens) of 1180 nM. This lies in the single-digit micromolar range.
